# Results as given in ChEMBL document CHEMBL5260858, “Targeting mycobacterial membranes and membrane proteins: Progress and limitations” (Bioorg Med Chem, 2023).
# How the values were obtained:
# [1] = test system: Mycobacterium tuberculosis; test: Antitubercular activity against Mycobacterium tuberculosis H37Rv expressing GFP assessed as bacterial growth inhibition by measuring GFP fluorescence incubated for 72 hrs by fluorescence analysis; type: functional
# [2] = test system: Mycobacterium tuberculosis; test: Antitubercular activity against Mycobacterium tuberculosis H37Rv ATCC 27294 infected in mouse J774 cells assessed as intracellular bacterial growth inhibition incubated for by resazurin microtiter assay; type: functional
# [3] = test system: Mycobacterium tuberculosis; test: Antitubercular activity against Mycobacterium tuberculosis H37Rv ATCC 27294 assessed as bacterial growth inhibition by resazurin microtiter assay; type: functional
# [4] = test system: Mycobacterium tuberculosis; test: Antimycobacterial activity against Mycobacterium tuberculosis H37Rv assessed as bacterial growth inhibition incubated for 1 week by resazurin reduction microplate assay; type: functional; details: 168 h, time 1 weeks
# [5] = molecular target: T1, Decaprenylphosphoryl-beta-D-ribose oxidase (Mycobacterium tuberculosis (strain ATCC 25618 / H37Rv), UniProt P9WJF1); test: Inhibition of Mycobacterium tuberculosis H37Rv DprE1 assessed as formation of resorufin using farnesyl-phosphoryl-beta-D-ribofuranose by AmplexRed reagent based fluorescence assay
# T1 sequence (P9WJF1 whole entry): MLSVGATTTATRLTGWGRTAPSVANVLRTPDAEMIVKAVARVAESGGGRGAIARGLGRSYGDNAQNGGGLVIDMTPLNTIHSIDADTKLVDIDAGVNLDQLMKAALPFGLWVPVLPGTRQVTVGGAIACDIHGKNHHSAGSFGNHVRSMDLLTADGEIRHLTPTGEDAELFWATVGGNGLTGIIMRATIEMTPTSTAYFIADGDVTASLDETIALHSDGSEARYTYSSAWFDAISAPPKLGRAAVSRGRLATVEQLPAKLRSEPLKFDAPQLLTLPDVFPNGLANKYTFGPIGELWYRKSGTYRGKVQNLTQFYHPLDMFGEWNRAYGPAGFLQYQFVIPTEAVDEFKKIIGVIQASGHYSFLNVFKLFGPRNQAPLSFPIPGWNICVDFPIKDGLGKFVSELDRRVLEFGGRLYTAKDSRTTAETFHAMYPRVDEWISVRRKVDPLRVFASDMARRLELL
# [6] = test system: Mycobacterium tuberculosis; test: Antitubercular activity against Mycobacterium tuberculosis H37Rv assessed as bacterial growth inhibition incubated for 6 days by resazurin reduction microplate assay; type: functional; details: 144 h, time 6 day
# [7] = test system: Mycobacterium tuberculosis; test: Antitubercular activity against Mycobacterium tuberculosis H37Rv infected in human THP-1 cells assessed as bacterial growth inhibition incubated for 48 hrs by PrestoBlue staining based fluorescence analysis; type: functional, organism-based; details: THP-1, 48 h
# [8] = test system: Mycobacterium tuberculosis; test: Antimycobacterial activity against Mycobacterium tuberculosis H37Rv assessed as bacterial growth inhibition incubated for 6 days by resazurin dye based assay; type: functional; details: 144 h, time 6 day
# [9] = test system: Mycobacterium tuberculosis; test: Antitubercular activity against Mycobacterium tuberculosis assessed as bacterial growth inhibition; type: functional
# [10] = test system: Mycobacterium tuberculosis; test: Antimycobacterial activity against Mycobacterium tuberculosis H37Rv ATCC27294 assessed as bacterial growth inhibition incubated for 7 days by microplate Alamar blue assay; type: functional; details: H37Rv ATCC27294, 168 h, time 7 day
# [11] = test system: Mycobacterium tuberculosis; test: Antitubercular activity against Mycobacterium tuberculosis H37Rv assessed as bacterial growth inhibition incubated for 24 hrs by [14C]-acetate labelling based radiometric analysis; type: functional
# [12] = test system: Mycobacterium tuberculosis; test: Antitubercular activity against Mycobacterium tuberculosis mc2 7000 assessed as bacterial growth inhibition incubated for 6 days by resazurin based fluorescence assay; type: functional; details: mc2 7000, 144 h, time 6 day
# [13] = test system: Mycobacterium tuberculosis; test: Antitubercular activity against Mycobacterium tuberculosis H37Rv assessed as bacterial growth inhibition incubated for 7 days by resazurin reduction microplate assay; type: functional; details: 168 h, time 7 day
# [14] = test system: Mycobacterium tuberculosis; test: Antitubercular activity against Mycobacterium tuberculosis H37Rv assessed as bacterial growth inhibition incubated for 6 days by resazurin based fluorescence assay; type: functional; details: 144 h, time 6 day
# [15] = test system: Mycobacterium tuberculosis; test: Antitubercular activity against Mycobacterium tuberculosis H37Rv infected in BALB/c mouse assessed as reduction in bacterial load at 100 mg/kg, po for 10 days by CFU analysis; type: functional; details: time 10 day
# [16] = test system: Mycobacterium tuberculosis; test: Antitubercular activity against Mycobacterium tuberculosis H37Rv assessed as bacterial growth inhibition by microdilution method; type: functional
# [17] = test system: Mycobacterium tuberculosis; test: Antitubercular activity against Mycobacterium tuberculosis H37Rv infected in human HepG2 cells assessed as bacterial growth inhibition incubated for 4 weeks by resazurin reduction microtiter assay; type: functional, organism-based; details: HepG2, 672 h
# [18] = test system: Mycobacteroides abscessus; test: Antitubercular activity against Mycobacterium abscessus CIP104536 assessed as bacterial growth inhibition incubated 3 to 5 days by resazurin based broth microdilution method; type: functional; details: time 3-5 day
# [19] = test system: Mycobacterium tuberculosis; test: Antitubercular activity against Mycobacterium tuberculosis MDR_CHUV assessed as bacterial growth inhibition by REMA analysis; type: functional
# [20] = test system: Mycobacterium tuberculosis; test: Antitubercular activity against Mycobacterium tuberculosis H37Rv assessed as bacterial growth inhibition; type: functional
smiles,measurement,setting,value
CC(C)(C)c1ccc(Cn2cnc([N+](=O)[O-])n2)cc1,IC90,[1],500 nM
COc1ccc(/C=C2/S/C(=N/N=C/c3ccccc3O)NC2=O)cc1,MIC,[2],4 µg/mL
same,MIC90,[3],1 µg/mL
C[C@H]1COC2(CCN(c3nc(=O)c4cc(C(F)(F)F)cc(-n5cccc5)c4s3)CC2)O1,MIC,[4],0.35 µM
same,IC50,[5],< 8000 nM
O=C(/C=C/c1nccs1)N1CCN(Cc2ccc3c(c2)OCO3)CC1,MIC,[6],0.3 µg/mL
same,IC50,[7],1.8 µg/mL
O=c1nc(N2CCN(S(=O)(=O)C3CC3)CC2)sc2c([N+](=O)[O-])cc(C(F)(F)F)cc12,MIC,[8],0.003 µg/mL
O=C1CCc2c(cccc2OC[C@]2(O)CCN(c3c(F)cc(Cl)cc3F)C[C@H]2O)N1,MIC,[9],0.0005 µg/mL
O=c1nc(N2CC3CN(Cc4ccc(OC(F)(F)F)cc4)CC3C2)sc2c([N+](=O)[O-])cc(C(F)(F)F)cc12 (stereo not drawn),MIC,[10],< 0.035 µM
CCS(=O)(=O)N1CCN(c2nc(=O)c3cc(C(F)(F)F)cc([N+](=O)[O-])c3s2)CC1,MIC,[8],0.003 µg/mL
CCc1ccc([C@H]2C[C@@H](C(F)(F)F)n3ncc(C(=O)NCc4ccc5c(c4)OCO5)c3N2)cc1,MIC,[11],0.16 µM
CNC(=O)c1c(-c2ccccc2)oc2ccc(O)c(CN3CCCCC3)c12,MIC,[12],0.2 µM
CCNc1nc(SCC)nc2ccccc12,IC50,[7],0.011 µg/mL
same,MIC,[13],0.05 µg/mL
O=c1nc(N2CC3CN(Cc4ccc(Cl)c(F)c4)CC3C2)sc2c([N+](=O)[O-])cc(C(F)(F)F)cc12 (stereo not drawn),MIC,[10],< 0.035 µM
CCc1ccc([C@H]2C[C@@H](C(F)(F)F)n3ncc(C(=O)NCc4ccc(OC)cc4)c3N2)cc1,MIC,[14],0.25 µM
CCSc1nc(NC)c2cccc(F)c2n1,IC50,[7],0.013 µg/mL
same,MIC,[13],0.04 µg/mL
O=C(/C=C/c1cscn1)N1CCN(Cc2ccc3c(c2)OCO3)CC1,Activity,[15],0.6 log10CFU
same,MIC,[6],0.1 µg/mL
same,IC50,[7],0.2 µg/mL
O=c1nc(N2CCN(S(=O)(=O)c3cccs3)CC2)sc2c([N+](=O)[O-])cc(C(F)(F)F)cc12,MIC,[8],0.004 µg/mL
CCc1ccc([C@H]2C[C@@H](C(F)(F)F)n3ncc(C(=O)NCc4ccc(F)cn4)c3N2)cc1,MIC,[11],0.5 µM
O=C(/C=C/c1ccccc1)N1CCN(Cc2ccc3c(c2)OCO3)CC1,Activity,[15],0.9 log10CFU
same,MIC,[6],0.2 µg/mL
same,IC50,[7],0.3 µg/mL
CCc1ccc([C@H]2C[C@@H](C(F)(F)F)n3ncc(C(=O)NCc4ccc(F)cc4)c3N2)cc1,MIC,[11],0.16 µM
COC(=O)c1c(NC(=O)c2c(F)c(F)c(F)c(F)c2F)sc(C(N)=O)c1C,MIC,[16],0.5 µM
O=C(/C=C/c1ccsc1)N1CCN(Cc2ccc3c(c2)OCO3)CC1,IC50,[17],0.3 µg/mL
same,MIC,[6],0.1 µg/mL
CCSc1nc(NC)c2ccccc2n1,IC50,[7],0.012 µg/mL
same,MIC,[13],0.09 µg/mL
OC1(c2ccc(Cl)c(C(F)(F)F)c2)CCN(Cc2ccccc2I)CC1,MIC99,[18],0.125 µg/mL
C[C@H]1COC2(CCN(c3nc(=O)c4cc(C(F)(F)F)cc([N+](=O)[O-])c4s3)CC2)O1 [BTZ-043],MIC99,[19],0.002 µg/mL
CN(C)CCCN1c2ccccc2Sc2ccc(Cl)cc21 [CHLORPROMAZINE],MIC,[9],25 µg/mL
CC(C)/N=c1\cc2n(-c3ccc(Cl)cc3)c3ccccc3nc-2cc1Nc1ccc(Cl)cc1 [CLOFAZIMINE],MIC,[20],0.12 µg/mL
O=c1nc(N2CCN(CC3CCCCC3)CC2)sc2c([N+](=O)[O-])cc(C(F)(F)F)cc12 [MACOZINONE],MIC99,[20],0.003 µg/mL
same,MIC99,[19],0.0004 µg/mL
NC(=O)c1cnccn1 [PYRAZINAMIDE],MIC,[20],3.12 µg/mL
CCc1nc2ccc(Cl)cn2c1C(=O)NCc1ccc(N2CCC(c3ccc(OC(F)(F)F)cc3)CC2)cc1 [TELACEBEC],MIC,[20],0.0027 µM
CSc1ccc2c(c1)N(CCC1CCCCN1C)c1ccccc1S2 (stereo not drawn) [THIORIDAZINE],MIC,[20],15 µg/mL
CN1CCN(CCCN2c3ccccc3Sc3ccc(C(F)(F)F)cc32)CC1 [TRIFLUOPERAZINE],MIC,[9],5 µg/mL
